# In PubChem BioAssay (NCI):
#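 Values below derive from 48-hour exposures of cells grown in 96-well plates, with endpoints linearly interpolated between the two concentrations bracketing the appropriate inhibition level. TGI denotes the concentration required for complete inhibition of growth.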
# How the values were obtained:
# Experiment in all cases: NCI anticancer screen, dose series, 48 h
# [1] = system: 786-0 renal
# [2] = system: A498 renal
# [3] = system: A549 NSCLC
# [4] = system: ACHN renal
# [5] = system: CAKI-1 renal
# [6] = system: CCRF-CEM leukemia
# [7] = system: COLO 205 colon
# [8] = system: DU-145 prostate
# [9] = system: EKVX NSCLC
# [10] = system: HCC-2998 colon
# [11] = system: HCT-15 colon
# [12] = system: HL-60(TB) leukemia
# [13] = system: HOP-62 NSCLC
# [14] = system: HOP-92 NSCLC
# [15] = system: HS 578T breast
# [16] = system: HT29 colon
# [17] = system: IGROV1 ovarian
# [18] = system: K-562 leukemia
# [19] = system: KM12 colon
# [20] = system: LOX IMVI melanoma
# [21] = system: M14 melanoma
# [22] = system: MALME-3M melanoma
# [23] = system: MCF7 breast
# [24] = system: MDA-MB-231 breast
# [25] = system: MDA-MB-435
# [26] = system: MDA-N
# [27] = system: MOLT-4 leukemia
# [28] = system: NCI-H226 lung
# [29] = system: NCI-H23 lung
# [30] = system: NCI-H460 lung
# [31] = system: NCI-H522 lung
# [32] = system: NCI/ADR-RES ovarian
# [33] = system: OVCAR-3 ovarian
# [34] = system: OVCAR-4 ovarian
# [35] = system: OVCAR-5 ovarian
# [36] = system: OVCAR-8 ovarian
# [37] = system: PC-3 prostate
# [38] = system: RPMI-8226 leukemia
# [39] = system: RXF 393 renal
# [40] = system: SF-268 CNS
# [41] = system: SF-295 CNS
# [42] = system: SF-539 CNS
# [43] = system: SK-MEL-2 melanoma
# [44] = system: SK-MEL-28 melanoma
# [45] = system: SK-MEL-5 melanoma
# [46] = system: SK-OV-3 ovarian
# [47] = system: SN12C renal
# [48] = system: SNB-19 CNS
# [49] = system: SNB-75 CNS
# [50] = system: SR leukemia
# [51] = system: SW-620 colon
# [52] = system: T-47D breast
# [53] = system: TK-10 renal
# [54] = system: U251 CNS
# [55] = system: UACC-257 melanoma
# [56] = system: UACC-62 melanoma
# [57] = system: UO-31 renal
# [58] = system: BT-549 breast
# [59] = system: HCT-116 colon
structure (smiles),measurement,setting,value
O=C1O/C(=C\c2ccc(O)cc2)C(c2ccc(O)c(Cl)c2)=C1Cl,TGI,[1],> 100 µM
same,TGI,[2],> 100 µM
same,TGI,[3],> 100 µM
same,TGI,[4],> 100 µM
same,TGI,[5],> 100 µM
same,TGI,[6],> 100 µM
same,TGI,[7],> 100 µM
same,TGI,[8],> 100 µM
same,TGI,[9],> 100 µM
same,TGI,[10],89.9 µM
same,TGI,[11],> 100 µM
same,TGI,[12],94.7 µM
same,TGI,[13],> 100 µM
same,TGI,[14],60.6 µM
same,TGI,[15],> 100 µM
same,TGI,[16],> 100 µM
same,TGI,[17],> 100 µM
same,TGI,[18],> 100 µM
same,TGI,[19],> 100 µM
same,TGI,[20],> 100 µM
same,TGI,[21],> 100 µM
same,TGI,[22],74.5 µM
same,TGI,[23],47.4 µM
same,TGI,[24],> 100 µM
same,TGI,[25],81.7 µM
same,TGI,[26],68 µM
same,TGI,[27],> 100 µM
same,TGI,[28],> 100 µM
same,TGI,[29],76.6 µM
same,TGI,[30],> 100 µM
same,TGI,[31],53.3 µM
same,TGI,[32],97.6 µM
same,TGI,[33],> 100 µM
same,TGI,[34],> 100 µM
same,TGI,[35],> 100 µM
same,TGI,[36],> 100 µM
same,TGI,[37],> 100 µM
same,TGI,[38],> 100 µM
same,TGI,[39],73 µM
same,TGI,[40],> 100 µM
same,TGI,[41],> 100 µM
same,TGI,[42],> 100 µM
same,TGI,[43],77.4 µM
same,TGI,[44],> 100 µM
same,TGI,[45],43.2 µM
same,TGI,[46],> 100 µM
same,TGI,[47],> 100 µM
same,TGI,[48],> 100 µM
same,TGI,[49],> 100 µM
same,TGI,[50],> 100 µM
same,TGI,[51],> 100 µM
same,TGI,[52],> 100 µM
same,TGI,[53],> 100 µM
same,TGI,[54],> 100 µM
same,TGI,[55],> 100 µM
same,TGI,[56],> 100 µM
same,TGI,[57],> 100 µM
CNC(=O)NS(=O)(=O)c1ccc(C)cc1,TGI,[1],> 100 µM
same,TGI,[3],> 100 µM
same,TGI,[4],> 100 µM
same,TGI,[58],> 100 µM
same,TGI,[6],> 100 µM
same,TGI,[7],> 100 µM
same,TGI,[8],> 100 µM
same,TGI,[59],> 100 µM
same,TGI,[11],> 100 µM
same,TGI,[12],> 100 µM
same,TGI,[13],> 100 µM
same,TGI,[14],> 100 µM
same,TGI,[15],> 100 µM
same,TGI,[16],> 100 µM
same,TGI,[17],> 100 µM
same,TGI,[18],> 100 µM
same,TGI,[19],> 100 µM
same,TGI,[20],> 100 µM
same,TGI,[21],> 100 µM
same,TGI,[22],> 100 µM
same,TGI,[23],> 100 µM
same,TGI,[24],> 100 µM
same,TGI,[26],> 100 µM
same,TGI,[27],> 100 µM
same,TGI,[29],> 100 µM
same,TGI,[30],> 100 µM
same,TGI,[31],> 100 µM
same,TGI,[32],> 100 µM
same,TGI,[34],> 100 µM
same,TGI,[35],> 100 µM
same,TGI,[36],> 100 µM
same,TGI,[37],> 100 µM
same,TGI,[38],> 100 µM
same,TGI,[39],> 100 µM
same,TGI,[40],> 100 µM
same,TGI,[41],> 100 µM
same,TGI,[42],> 100 µM
same,TGI,[43],> 100 µM
same,TGI,[44],> 100 µM
same,TGI,[45],> 100 µM
same,TGI,[46],> 100 µM
same,TGI,[47],> 100 µM
same,TGI,[48],> 100 µM
same,TGI,[49],> 100 µM
same,TGI,[51],> 100 µM
same,TGI,[52],> 100 µM
same,TGI,[53],> 100 µM
same,TGI,[54],> 100 µM
same,TGI,[55],> 100 µM
same,TGI,[56],> 100 µM
same,TGI,[57],> 100 µM
CC(C)[C@@H](C)[C@@]1(C)C[C@@H]1[C@@H](C)[C@H]1CC[C@@H]([C@@H]2CC=C3C[C@@H](O)CC[C@]3(C)C2=O)[C@]1(C)CCO,TGI,[1],17.2 µM
same,TGI,[2],28.7 µM
same,TGI,[4],25 µM
same,TGI,[58],30.3 µM
same,TGI,[5],25.4 µM
same,TGI,[7],24.3 µM
same,TGI,[8],28.7 µM
same,TGI,[9],26 µM
same,TGI,[10],16.4 µM
same,TGI,[59],21.6 µM
same,TGI,[11],17.4 µM
same,TGI,[12],5.2 µM
same,TGI,[13],31.2 µM
same,TGI,[15],25.2 µM
same,TGI,[16],7.39 µM
same,TGI,[17],29.8 µM
same,TGI,[18],18 µM
same,TGI,[19],13 µM
same,TGI,[20],15.4 µM
same,TGI,[22],27.4 µM
same,TGI,[23],22.8 µM
same,TGI,[24],28 µM
same,TGI,[25],24.3 µM
same,TGI,[26],26.1 µM
same,TGI,[27],19.3 µM
same,TGI,[28],26.8 µM
same,TGI,[29],27.2 µM
same,TGI,[30],3.32 µM
same,TGI,[31],19.8 µM
same,TGI,[32],26.6 µM
same,TGI,[33],25.6 µM
same,TGI,[34],24.8 µM
same,TGI,[35],23.8 µM
same,TGI,[36],25.5 µM
same,TGI,[37],21.8 µM
same,TGI,[38],52 µM
same,TGI,[39],11.5 µM
same,TGI,[40],30.3 µM
same,TGI,[41],21.2 µM
same,TGI,[42],25.3 µM
same,TGI,[43],33.3 µM
same,TGI,[44],20.1 µM
same,TGI,[45],26.4 µM
same,TGI,[47],25.5 µM
same,TGI,[48],25.1 µM
same,TGI,[49],17.9 µM
same,TGI,[50],13.3 µM
same,TGI,[51],20.1 µM
same,TGI,[53],23.6 µM
same,TGI,[54],23 µM
same,TGI,[55],27.4 µM
same,TGI,[56],27.7 µM
same,TGI,[57],28.5 µM
C/C(Cc1ccc2c(c1)OCO2)=N\NC(=O)C(C)Sc1nnc(SC(C)C(=O)N/N=C(\C)Cc2ccc3c(c2)OCO3)s1 (stereo not given),TGI,[1],> 100 µM
same,TGI,[2],> 100 µM
same,TGI,[3],> 100 µM
same,TGI,[4],> 100 µM
same,TGI,[58],> 100 µM
same,TGI,[5],> 100 µM
same,TGI,[6],> 100 µM
same,TGI,[7],> 100 µM
same,TGI,[8],> 100 µM
same,TGI,[9],> 100 µM
same,TGI,[10],> 100 µM
same,TGI,[59],> 100 µM
same,TGI,[11],> 100 µM
same,TGI,[12],> 100 µM
same,TGI,[13],> 100 µM
same,TGI,[14],> 100 µM
same,TGI,[15],> 100 µM
same,TGI,[16],> 100 µM
same,TGI,[17],> 100 µM
same,TGI,[18],> 100 µM
same,TGI,[19],> 100 µM
same,TGI,[20],> 100 µM
same,TGI,[21],> 100 µM
same,TGI,[22],> 100 µM
same,TGI,[23],> 100 µM
same,TGI,[24],> 100 µM
same,TGI,[25],> 100 µM
same,TGI,[26],> 100 µM
same,TGI,[27],> 100 µM
same,TGI,[28],> 100 µM
same,TGI,[29],> 100 µM
same,TGI,[30],> 100 µM
same,TGI,[32],> 100 µM
same,TGI,[33],> 100 µM
same,TGI,[34],> 100 µM
same,TGI,[35],> 100 µM
same,TGI,[36],> 100 µM
same,TGI,[37],> 100 µM
same,TGI,[38],> 100 µM
same,TGI,[39],> 100 µM
same,TGI,[40],> 100 µM
same,TGI,[41],> 100 µM
same,TGI,[43],> 100 µM
same,TGI,[44],> 100 µM
same,TGI,[45],> 100 µM
same,TGI,[46],> 100 µM
same,TGI,[48],> 100 µM
same,TGI,[49],> 100 µM
same,TGI,[51],> 100 µM
same,TGI,[53],> 100 µM
same,TGI,[54],> 100 µM
same,TGI,[55],> 100 µM
same,TGI,[56],> 100 µM
same,TGI,[57],> 100 µM
